{
  "source": "paper PMC7052086",
  "about": "“Functional characterization of NADPH-cytochrome P450 reductase and cinnamic acid 4-hydroxylase encoding genes from Scoparia dulcis L” (Botanical Studies, 2020)",
  "molecular_target": "T1, SdC4H (CYP73A111) with SdCPR (Scoparia dulcis, UniProt U5N2L3)",
  "T1 construct": "gene C4H; full-length ORF in pET28b, His-tagged, E. coli BL21(DE3), crude soluble fraction; redox partner recombinant SdCPR (GenBank KF306080) added; with NADPH--cytochrome P450 reductase",
  "T1 sequence (U5N2L3 entry or part of it)": "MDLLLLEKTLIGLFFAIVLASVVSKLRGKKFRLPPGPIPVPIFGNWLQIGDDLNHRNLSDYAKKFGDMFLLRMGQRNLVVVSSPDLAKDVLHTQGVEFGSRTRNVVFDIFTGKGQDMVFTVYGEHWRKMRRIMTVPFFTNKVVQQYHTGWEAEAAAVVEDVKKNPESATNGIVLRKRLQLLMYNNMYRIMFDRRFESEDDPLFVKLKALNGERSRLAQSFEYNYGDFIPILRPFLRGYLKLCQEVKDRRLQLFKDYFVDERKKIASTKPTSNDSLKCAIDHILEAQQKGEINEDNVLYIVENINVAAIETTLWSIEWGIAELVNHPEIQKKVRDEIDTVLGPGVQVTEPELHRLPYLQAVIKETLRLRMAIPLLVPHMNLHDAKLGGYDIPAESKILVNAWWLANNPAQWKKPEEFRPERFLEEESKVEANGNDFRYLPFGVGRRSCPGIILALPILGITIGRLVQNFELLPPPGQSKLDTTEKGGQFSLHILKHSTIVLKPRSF",
  "T1 sequence (U5N352 entry or part of it, further chain)": "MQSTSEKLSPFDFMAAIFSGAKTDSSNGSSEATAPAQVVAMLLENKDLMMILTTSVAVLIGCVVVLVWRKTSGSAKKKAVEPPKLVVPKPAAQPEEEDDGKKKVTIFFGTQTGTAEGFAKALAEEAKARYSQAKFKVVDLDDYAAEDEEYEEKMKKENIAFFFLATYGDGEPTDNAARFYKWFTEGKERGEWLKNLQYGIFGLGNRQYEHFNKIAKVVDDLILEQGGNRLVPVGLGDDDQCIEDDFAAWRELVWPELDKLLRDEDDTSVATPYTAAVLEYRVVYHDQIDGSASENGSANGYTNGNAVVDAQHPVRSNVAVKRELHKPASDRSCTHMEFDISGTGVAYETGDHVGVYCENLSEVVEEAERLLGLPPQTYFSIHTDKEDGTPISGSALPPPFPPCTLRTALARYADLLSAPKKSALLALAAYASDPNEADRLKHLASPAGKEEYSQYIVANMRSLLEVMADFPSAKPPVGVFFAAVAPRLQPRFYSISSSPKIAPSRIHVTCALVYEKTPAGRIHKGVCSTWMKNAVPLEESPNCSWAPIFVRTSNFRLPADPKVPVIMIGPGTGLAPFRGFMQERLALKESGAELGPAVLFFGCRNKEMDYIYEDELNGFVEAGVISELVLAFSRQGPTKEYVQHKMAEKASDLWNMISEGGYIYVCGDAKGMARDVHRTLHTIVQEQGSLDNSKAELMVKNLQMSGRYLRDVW",
  "test": "HPLC detection of 4-hydroxylated product",
  "assay_type": "biochemical",
  "details": "1 mM trans-cinnamic acid, 2 mM NADPH, recombinant SdCPR, 50 mM phosphate pH 7.4, 30 °C, 30 min",
  "data": [
    {"smiles": "O=C(O)/C=C/c1ccccc1", "note": "[trans-cinnamic acid]", "values": [
      {"measurement": "HPLC detection of 4-hydroxylated product", "value": "the C4H activity (trans-cinnamic acid was 4-hydroxylated) of recombinant SdC4H was detected by HPLC"}
    ]}
  ]
}
